Source: patent US10022415B2, “External composition for skin containing an enzyme-treated saponin fraction derived from the root of Camellia sinensis” (AMOREPACIFIC CORPORATION, priority 2014, dated 2018)
Values belong to the compound of their own block, whether it stands above or below them.

Tests used:
Tyrosinase = Tyrosinase hinderance effect; type: biochemical, Mushroom; conditions: 37° C., 10 minutes, absorbance 475 nm; concentration not given
Experimental: Tyrosinase enzyme is that extracted from Mushroom and used the product of SIGMA Company. At first, tyrosine being the substrate was dissolved in the distilled water to make 0.3 mg/ml of solution and 1.0 ml of each solution was put in the tube, and then, 1.0 ml of potassium-phosphate buffer solution (0.1 mol concentration, pH 6.8) and 0.7 ml of the distilled water were added.
Each sample liquid, 0.2 ml, which was prepared by mixing the enzyme-treated saponin fraction derived from the root of camellia sinensis of the above Example 1 of the present invention in ethanol solution in the proper concentration was put in the reaction liquid and then was reacted in 37° C. incubator for 10 minutes. At this time, the control was prepared by adding only 0.2 ml of solution, instead of each of sample liquid, ascorbic acid was used as the positive control. 0.1 ml of 2500 units/ml tyrosinase solution was added to the reaction liquid and reacted in 37° C. incubator for 10 minutes. The tube with the reaction liquid was put in the ice water to stop the reaction by quenching and the absorbance at the wavelength of 475 nm was determined with the photoelectric spectrophotometer, and then the result was represented in the below Table 21. Each of tyrosinase hinderance effect was calculated by the below mathematical formula 5.

elastase = molecular target: T1, elastase (Sus scrofa, UniProt P00772); experiment: Inhibition of elastase activity; type: biochemical; conditions: EGCG 250 μM as positive control; 25° C., 15 minutes, absorbance 415 nm
T1 construct: purchased Sigma Aldrich E0127
Experimental: An ability hindering elastase activity of the enzyme-treated saponin fraction derived from the root of Camellia sinensis was determined in comparison with EGCG. The elastase and substrate as used were commercially purchased from Sigma Aldrich in […]0127), and the saponin fraction was used as the enzyme-treated saponin fraction derived from the root of Camellia sinensis roots as obtained from Example 1. 50 μL of Test material as represented in the below Table 1 and 20 μg/mL elastase·50 μL of solution of type III were mixed with that prepared with […] Tris-HCl buffer (pH 8.0) in 96-well plate. 250 μM of EGCG was used as a positive control, and non-treated group as a negative control used the distilled water. […] After completing the reaction, the absorption at the wavelength of 415 nm was determined. […] A: No addition of the experimental sample, Absorbance at the wavelength of 415 nm with the addition of enzyme B: No addition of the experimental sample, Absorbance at the wavelength of 415 nm without the addition of enzyme C: Addition of the experimental sample, Absorbance at the wavelength of 415 nm with the addition of enzyme D: Addition of the experimental sample, Absorbance at the wavelength of 415 nm without the addition of enzyme

B16/F10 melanoma cell = experiment: Inhibition of melanin generation in B16/F10 melanoma cell; type: cell-based; conditions: sample comprising 0.001 wt % of test material, cultured 3 days
Experimental: The sample comprising 0.001 wt % of the saponin fraction derived from the root of camellia sinensis of the above Example 1 and kojic acid, respectively, as the test material, was added to the culture of B16/F10 melanoma cell (Korean cell strain bank) at the constant concentration and cultured for 3 days, washed with PBS, dissolved with 1N NaOH and the absorbance was determined at 405 nm. At this time, the cell added no test material was considered as the control and the degree for hindering the melanin generation of each test material was determined by comparing the contents of melanin in the control. The inhibition rate of melanin generation was calculated according to mathematical formula 6 as below and its result was represented in Table 22.

5α-reductase = molecular target: T2, 5α-reductase (Homo sapiens, UniProt P31213); experiment: Inhibition of 5α-reductase activity, [14C]testosterone to DHT in HEK293-5αR2 cell; type: cell-based; conditions: 2 hours, negative control 48.0
T2 construct: 3xFLAG; expressed in transfected cells; host or cells: HEK293
T2 sequence (P31213 1-254): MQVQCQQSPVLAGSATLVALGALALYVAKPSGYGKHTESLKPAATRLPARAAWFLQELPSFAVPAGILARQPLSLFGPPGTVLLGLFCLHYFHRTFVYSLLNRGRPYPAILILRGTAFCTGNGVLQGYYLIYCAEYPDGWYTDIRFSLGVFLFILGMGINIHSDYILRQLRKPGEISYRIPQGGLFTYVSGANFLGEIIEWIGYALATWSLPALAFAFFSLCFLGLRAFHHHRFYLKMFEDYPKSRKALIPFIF
Experimental: In order to identify the effect for inhibiting 5α-reductase activity, a ratio of [^14C]testosterone changed into [^14C]dihydrotestosterone (DHT) in HEK293-5αR2 cell was determined. […] The next day, new medium with the enzyme substrate and inhibitor was changed. 0.05 μCi [^14C]testosterone (Amersham Pharmacia biotech, UK) as the substrate of the medium was used.
Thereafter, the culture media was collected and steroid was extracted with 800 μl of ethylacetate and then, after separating the organic solvent layer of the top and drying it, the remaining residue was dissolved with 50 μl of ethylacetate and developed it by using ethylacetate-hexane (1:1) as a solvent on Silica plastic sheet kieselgel 60 F254.

collagenase (MMP-1) = experiment: Collagenase (MMP-1) generation in human fibroblast, ELISA; type: cell-based; conditions: saponin fraction 30 μg/ml for 24 hours, non-treated group = 100
Experimental: Fibroblast of a human was placed in 96-well plate (96-well microtiter plate) with Dulbecco's Modified Eagle's Media (DMEM) containing 2.5% fetal bovine serum to be 5,000 cells/well, and was cultured at 5% CO2, at the temperature of 37° C. of incubator to grow to about 70˜80% confluency. The saponin fraction derived from the root of Camellia sinensis of the above Example 1 was treated for 24 hours in a concentration of 30 μg/ml, and then the cell culture was collected.
The degree of the collagenase generation for the cell culture collected by using the commercially available collagenase determination Apparatus (AmershamPharmacia Corporation in U.S.A., Catalog #: RPN 2610) was determined. At first, the collected cell culture was placed in 96-well plate evenly covered with the first collagenase antibody and antigen-antibody reaction was performed in thermostat container for three hours. […]
The absorbance of 96-well plate representing yellow color was determined by using Absorptiometer at 405 nm, the degree of collagenase synthesis was calculated by the below Mathematical formula 2, and the result was shown in Table 2 as below. In this case, the absorbance for the reaction of the cell culture collected from the group without treating with the composition was used as the control.

procollagen type I = experiment: Promotion of collagen biosynthesis in fibroblast, procollagen type I ELISA; type: cell-based; conditions: 10 ng/ml, 24 hours, non-treated group = 100
Experimental: In order to investigate the promoting effect of the collagen biosynthesis, the enzyme-treated saponin fraction derived from the root of camellia sinensis of the present invention was determined in comparison with TGF-β. At first, fibroblast was seeded as 10^5 cells per a well in 24-well plate and cultured until growing to about 90% confluency. After incubating it with non-serum DMEM medium for 24 hours, it was treated with 10 ng/ml of the saponin fraction derived from the root of camellia sinensis of the above Example 1 and TGF-β dissolved in the non-serum medium, respectively and incubated in CO2 incubator for 24 hours. The supernatant of them was taken and it was examined as to whether procollagen was increased or not by using procollagen type I ELISA kit. The result is represented in Table 8, and the ability for synthesizing the collagen was compared by considering that the non-treated group was 100.

T1 sequence (P00772 27-266): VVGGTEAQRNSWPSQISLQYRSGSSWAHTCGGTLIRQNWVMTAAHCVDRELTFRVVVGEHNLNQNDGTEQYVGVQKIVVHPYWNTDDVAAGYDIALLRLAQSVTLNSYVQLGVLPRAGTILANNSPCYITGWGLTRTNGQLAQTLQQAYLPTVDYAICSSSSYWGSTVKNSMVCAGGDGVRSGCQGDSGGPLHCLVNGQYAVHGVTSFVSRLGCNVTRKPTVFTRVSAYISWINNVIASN

Tyrosnase hinderance rate (%) (Tyrosinase): 52%
Compound: O=C1O[C@H]([C@@H](O)CO)C(O)=C1O [Ascorbic acid]

Degree of the inhibiton (%) of elastase activity (elastase): 65%
Compound: O=C(O[C@@H]1Cc2c(O)cc(O)cc2O[C@@H]1c1cc(O)c(O)c(O)c1)c1cc(O)c(O)c(O)c1 [EGCG]

Compound: O=c1cc(CO)occ1O [Kojic acid]
Inhibition rate of melanin generation (%) (B16/F10 melanoma cell): 53%

Compound: CC(C)(C)NC(=O)[C@H]1CC[C@H]2[C@@H]3CC[C@H]4NC(=O)C=C[C@]4(C)[C@H]3CC[C@]12C [Positive control, finasteride]
Conversion rate (%) of testosterone into dihydrotestosterone (5α-reductase): 27.6%

Compound: CC1=C(/C=C/C(C)=C/C=C/C(C)=C/C(=O)O)C(C)(C)CCC1 [Retinoic acid]
Degree of the expression (%) of collagenase (collagenase (MMP-1)): 75%

Compound: TGF-β: comparison substance for collagen biosynthesis
Ability for synthesizing collagen (%) (procollagen type I): 183.5%
